Measurements: US20230226259A1, “NANOFIBER CARDIAC PATCH AND METHODS OF USE THEREOF” (Ohio State Innovation Foundation, priority 2020, published 2023)

How the values were obtained:
[1] = test system: hiCMs
[2] = test system: COVID-19 patients; conditions: cited from earlier work
[3] = test system: hiPSC-CMs cultured on aligned coaxial patches; assay: Particle image velocimetry (PIV) optical contractility of aligned coaxial cardiac patch; format: cell-based, human; conditions: 100 nM, patches at two weeks of culture
Description: Cross-correlation (“PIV”) analysis of images. Cell contractility kinetics were assessed using the optical flow/PIV method. Briefly, a motion pattern (velocity field) captured on a pair of images was calculated by dividing the first image into overlapping tiles, each 64 pixels wide. The second image was then scanned pixel-by-pixel, by shifting an equally sized (64×64 pixels) window. The most similar (by Euclidean distance) tile on the second image was then assumed to be the location where the pattern in the first image moved. The resulting displacement vectors characterizing each image tile were then interpolated and denoised by a thin-plate spline fit, yielding a coarse displacement field. The coarse estimate was used to construct a second, higher resolution displacement field. […] Fourier spectra were calculated from D(t) beat patterns using the discrete Fourier transform algorithm. Power densities were calculated as the magnitudes of the squared Fourier spectra, and indicate periodicity within the signal in the form of peaks at the corresponding frequencies. When the analyzed signal is not a pure sine wave, harmonics are expected to appear at integer multiples of the fundamental frequency f(2f, 3f, etc). […]

[4] = test system: hiPSC-CMs; assay: Multi-electrode array (MEA) field potentials of hiPSC-CMs cultured in 2-D or on aligned coaxial patches (3-D) after cardiac drugs; format: cell-based, human; conditions: for beating frequency (beats per minute): change after treatment
[5] = test system: fertilized chicken eggs; assay: In ovo CAM assay; format: in vivo; conditions: in Geltrex carrier, 5 days
Description: The angiogenic potential of bFGF loaded PDA-NPs and DPDA-NPs was evaluated by using fertilized chicken eggs. The eggs were incubated in a hatching incubator for 5 days, following the incubation the viable eggs were selected and grouped as follows (bFGF+Geltrex, bFGF-PDA-NPs+Geltrex, bFGF-DPDA-NPs+Geltrex and only Geltrex). A window was made on the eggshell and a sterilized nylon mesh was placed inside the egg. The test samples were loaded on the nylon mesh and the window was covered by placing a 35 mm plate and secured by using tape. The eggs were further incubated for 5 days, following which it was carefully dissected to retrieve the nylon mesh and imaged using a stereomicroscope (Leica).

Molecule: CCN(CCO)CCCC(C)Nc1ccnc2cc(Cl)ccc12 (stereo not shown) [HCQ, hydroxychloroquine]
- cell death [1]: increased
- cell viability [1]: decreased
- electrophysiological function (MEA and patch clamp) [1]: considerable changes
- QT interval ([2]; COVID-19 / SARS-CoV-2 patients): QT prolongation
- association between treatment and consequent intubation or death ([2]; New York study (Geleris et al)): no significant association
- recovery of patients ([2]; randomized clinical trial, administration for 5 days): improved recovery

Molecule: CC(C)NCC(O)c1ccc(O)c(O)c1 (stereo not shown) [ISO, Isoproterenol]
- spontaneous beat amplitude (beat patterns) [3]: increase
- average frequency of spontaneous beating ([3]; mean +- SEM, untreated 0.136 Hz): 1.497+−0.0394 Hz
- beat period ([4]; 2-D culture, 10 nM ISO): 0.67 ± 0.04 s
- beat period ([4]; 2-D culture, 100 nM ISO): 0.66 ± 0.03 s
- beat period ([4]; 3-D culture (aligned coaxial patch), 10 nM ISO): 0.8 ± 0.15 s
- beat period ([4]; 3-D culture (aligned coaxial patch), 100 nM ISO): 0.66 ± 0.1 s
- Fridericia-corrected field potential duration (FPDc), change vs baseline ([4]; both 2-D and 3-D cultures): dose-dependent shortening of the QT interval
- beat period, change vs baseline ([4]; both 2-D and 3-D cultures): significant dose-dependent decrease
- beating frequency (beats per minute) ([4]; both 2-D and 3-D cultures): increase

Molecule: COc1ccc(CCN(C)CCCC(C#N)(c2ccc(OC)c(OC)c2)C(C)C)cc1OC (stereo not shown) [Verapamil]
- FPDc, change with dose ([4]; 3-D culture only, 0.1 μM and 0.3 μM): dose-dependent decrease
- beat period, change vs baseline ([4]; both 2-D and 3-D cultures): significant fold decrease
- beating frequency (beats per minute) ([4]; both 2-D and 3-D cultures): increase

Molecule: bFGF: basic fibroblast growth factor
- new blood vessel formation on nylon mesh [5]: remarkable angiogenesis
